Assay results published in US8884011B2, “Nucleotide analogues as precursor molecules for antivirals” (Centre National de la Recherche Scientifique-CNRS, priority 2006, dated 2014).
Like-named read-outs stand apart in the source and are kept apart here.

Key:
[1] = system: influenza A (H1N1); assay: Virus panel: influenza A (H1N1) in MDCK cells; assay type: cell-based; conditions: read-out: in vitro antiviral activity (EC50), none up to
Text: (§1) influenza A (H1N1), influenza A (H3N2), influenza B, in MDCK cells;

[2] = system: influenza B; assay: Virus panel: influenza B in MDCK cells; assay type: cell-based; conditions: read-out: in vitro antiviral activity (EC50), none up to
Text: as §1

[3] = system: influenza A (H3N2); assay: Virus panel: influenza A (H3N2) in MDCK cells; assay type: cell-based; conditions: read-out: in vitro antiviral activity (EC50), none up to
Text: as §1

[4] = system: Reovirus-1; assay: Virus panel, CPE assay: Reovirus-1 in Vero cells; assay type: cell-based; conditions: Reovirus-1, Vero cells; read-out: in vitro antiviral activity (EC50), none up to
[5] = system: HIV-1 (IIIB); assay: Anti-HIV test in CEM cell cultures, syncytium formation, HIV-1 (IIIB); assay type: cell-based; conditions: Human immunodeficiency virus 1, IIIB, CCRF-CEM, read-out: EC50 (μM) HIV-1
Experimental: Briefly, CEM cells (4.5×10^5 cells per ml) were suspended in fresh culture medium and infected with HIV-1 at 100 CCID50 per ml of cell suspension. Then, 100 μl of the infected cell suspension were transferred to microplate wells, mixed with 100 μl of the appropriate dilutions of the test compounds, and further incubated at 37° C. After 4 to 5 days, giant cell formation was recorded microscopically in the CEM cell cultures.

[6] = Stability in complete medium (RPMI 1640 containing 10% heat-inactivated fetal calf serum), HPLC; assay type: in vitro ADME
Experimental: (§2) Media and preparation of cell extracts. Culture medium was composed by RPMI 1640 containing 10% (v/v) heat-inactivated fetal calf serum and stored at −80° C. CEM-SS cell extracts were prepared according to a published procedure (Puech, F. et al. Antiv. Res. 1993, 22, 155-174). Exponentially growing CEM-SS cells were recovered by centrifugation (500 g, 4° C., 4 min), washed twice with PBS and resuspended in 10 mM Tris-HCl, 140 mM KCl (pH 7.4), at the concentration of 30×10^6 cells/mL. Cells were lyzed by ultrasonic treatment and cellular debris were removed by centrifugation (10000 g, 4° C., 20 min). The supernatant containing soluble proteins (3 mg/mL) was stored at −80° C.
Kinetic data and decomposition pathways for compounds 6 and 11 were studied at 37° C. (a) in complete medium (RPMI 1640 containing 10% heat-inactivated fetal calf serum (b) in total cells extracts (CEM-SS). For each kinetic study, the compound solution was diluted with a freshly thawed aliquot of the considered medium to obtain an initial concentration of 0.1 mM. The mixture was incubated at 37° C. and for the required time, an aliquot (10% solution) was taken and immediately frozen at −80° C. for further HPLC analysis. The crude sample was injected into the precolumn and eluted with buffer A during 5 min. Then, the switching valve for connecting the precolumn to the column was activated, and a linear gradient from buffer A to buffer B, increasing buffer B from 0% at 0 min to 20% at 40 min is applied. The retention times were 6, 26 min; 11, 29.5 min, PMEA, 24.3 min and (R)-PMPA, 27.8 min.
All the compounds were analyzed under the same conditions. The amount of remaining parent compound at each time point was used to determine the half-life of the compound. The product of degradation from parent compound was determined by comparison with corresponding references.

[7] = system: Sindbis virus; assay: Virus panel, CPE assay: Sindbis virus in Vero cells; assay type: cell-based; conditions: read-out: in vitro antiviral activity (EC50), none up to
[8] = system: Parainfluenza-3-virus; assay: Virus panel, CPE assay: Parainfluenza-3-virus in Vero cells; assay type: cell-based; conditions: read-out: in vitro antiviral activity (EC50), none up to
[9] = system: HIV-2 (ROD); assay: Anti-HIV test in CEM cell cultures, syncytium formation, HIV-2 (ROD); assay type: cell-based; conditions: Human immunodeficiency virus 2, CCRF-CEM, read-out: EC50 (μM) HIV-2
[10] = Cytostatic effect on parent hepatoma cell line HepG2 (MTS method); conditions: human
[11] = system: HBV; assay: Anti-HBV test in infected HepAD38 cells (intracellular viral DNA by Q-PCR); assay type: cell-based; conditions: for EC50: Hepatitis B virus, 144 h, infected HepAD38 cells, 50% reduction of viral DNA, day 6 post-induction
Experimental: These are hepatoma cells that have been stably transfected with a cDNA copy of the pregenomic RNA of wild-type virus. Withdrawal of tetracycline from the culture medium results in the initiation of viral replication. This offers the advantage, in contrast to the Hep G2.2.15 cell lines commonly used, that there is no, or very limited background viral DNA synthesis. Cells were cultured at 37° C. in a humidified 5% CO2/air atmosphere in seeding medium, DMEM/Ham's F12 (50/50) supplemented with 10% (v/v) heat-inactivated fetal calf serum, 100 IU/ml penicillin, 50 μg/ml streptomycin, 100 Ξg/ml kanamycin, 400 μg/ml G418, and 0.3 μg/ml tetracycline. […] After 2-3 days the cultures were induced for viral production by washing with prewarmed PBS and were fed with […] assay medium (seeding medium without tetracycline and G418) with or without the antiviral compounds. Medium was changed after 3 days. The antiviral effect was quantified by measuring levels of intracellular viral DNA at day 6 post-induction, by a real time quantitative PCR (Q-PCR) method. Total cellular DNA was extracted from the cells by means of a commercial kit. […] The reaction was analyzed using a SDS 7000. A plasmid containing the full length insert of the HBV genome was used to prepare the standard curve. The amount of viral DNA produced in treated cultures was expressed as a percentage of the mock treated samples. […] The cytostatic effect of the various compounds was assessed employing the parent hepatoma cell line HepG2. The effect of the compounds on exponentially growing HepG2 cells was evaluated by means of the MTS method. Briefly, cells were seeded at a density of 3000/well (96 well plate) and were allowed to proliferate for 3 days in the absence or presence of compounds after which the optical density was measured with a 96-well plate reader and cell density was determined.

[12] = system: HBV; assay: Anti-HBV test in infected Huh7 cells; assay type: cell-based; conditions: Hepatitis B virus
[13] = Cytotoxicity in CEM cell cultures (cell density); assay type: cell-based; conditions: human, 50% reduction in cell density, read-out: TC50 (the source's name)
[14] = system: CMSP (uninfected cells); assay: Cytotoxicity by MTT test in cultures of uninfected CMSP; conditions: text statement to Table VII
[15] = as above; conditions: human
[16] = system: vesicular stomatitis virus; assay: microbe, parasite or virus in culture; assay type: cell-based; conditions: HEL, read-out: in vitro antiviral activity (EC50), none up to
[17] = system: Coxsackie B4; assay: Virus panel, CPE assay: Coxsackie B4 virus in Hela and Vero cells; assay type: cell-based; conditions: Enterovirus B, read-out: in vitro antiviral activity (EC50), none up to
[18] = Stability in total cell extracts (CEM-SS), HPLC; assay type: in vitro ADME; conditions: 37° C., 0.1 mM
Experimental: as §2
Kinetic data and decomposition pathways for compounds 6 and 11 were studied at 37° C. […]
All the compounds were analyzed under the same conditions. […] The product of degradation from parent compound was determined by comparison with corresponding references.

[19] = system: HIV-1-LAI; assay: Anti-HIV test in CMSP cultures infected by HIV-1-LAI (RT activity in supernatants); assay type: cell-based; conditions: for EC50: Human immunodeficiency virus 1, 168 h, read-out: EC50 (μM) HIV-1 (LAI)
[20] = system: Punta Toro virus; assay: Virus panel, CPE assay: Punta Toro virus in Vero cells; assay type: cell-based; conditions: read-out: in vitro antiviral activity (EC50), none up to
[21] = system: respiratory syncytial virus; assay: Virus panel, CPE assay: respiratory syncytial virus in Hela cells; assay type: cell-based; conditions: human respiratory syncytial virus, read-out: in vitro antiviral activity (EC50), none up to
[22] = biological target: wild-type RT of HIV-1 (Human immunodeficiency virus type 1 group M subtype B, UniProt P04585); assay: biochemical; assay type: biochemical; conditions: for Selectivity = (kpol/Kd) natural nucleotide/(kpol/Kd) nucleotide analogue (discrimination): versus dATP
[23] = biological target: K65R mutant RT of HIV-1 (Human immunodeficiency virus type 1 group M subtype B, UniProt P04585, K652R); assay: biochemical; assay type: biochemical; conditions: for kpol / kpol/Kd: K65R mutant RT
[24] = system: K65R mutant RT of HIV-1; assay: biochemical; assay type: biochemical
[25] = affinities of the RT for the analogues (Kd), wild-type RT, unit inferred

For `C[C@H](Cn1cnc2c(N)ncnc21)OCP(=O)(O)S` (stereo partly drawn) [Compound 11, (R)-9-[2-(thiophosphonomethoxy)propyl]adenine], the EC50 [1] was over 200 µM, the EC50 [2] was over 200 µM and the EC50 [3] was over 200 µM. The EC50 [4] was over 200 µM, the EC50 [5] was 11.1 µM and the half-life at 0.1 mM ([6]; bovine, serum, 37° C., initial concentration 0.1 mM, read-out: t1/2 complete medium) was over 24 h. For the same compound, the product intact ([6]; complete medium, 37° C., degradation into the phosphonate) was “^b: product 77% intact (degradation into PMPA)”, the degradation ([6]; culture medium) was 20% and the EC50 [7] was over 200 µM. For the same compound, the EC50 [8] was over 200 µM, the EC50 [9] was 8.6 µM and the CC50 at 3 days [10] was over 174 µM. It also gave an EC50 [11] of 2.26 µM, an EC50 ([12]; Huh-7, read-out: EC50 (μM) HBV) of 5 µM and a CC50 [13] of over 165 µM. The “not cytotoxic (highest concentration tested)” value [14] was over 200 µM, the CC50 at 7 days [15] was over 100 µM and the EC50 [16] was over 200 µM. For the same compound, the EC50 [17] was over 200 µM, the t1/2 cell extracts [18] was “stable^c” and the EC50 [19] was 1.6 µM. The EC50 [20] was over 200 µM and the EC50 [21] was over 200 µM.
In the case of `Nc1ncnc2c1ncn2CCOCP(O)(=S)OP(=O)(O)OP(=O)(O)O` (stereo not drawn) [Compound 12, 9-[2-(diphosphorylthiophosphonomethoxy)ethyl]adenine], the Kd [22, 25] is reported as 1.2 µM, the “incorporation velocity, times lower than that of natural nucleotide dATP” value ([22]; wild-type RT) is reported as 90 times and the “kpol” value ([22]; wild-type RT) is reported as 0.55 s⁻¹. The kpol/Kd ([22]; wild-type RT) was 0.5, the “Selectivity = (kpol/Kd) natural nucleotide/(kpol/Kd) nucleotide analogue (discrimination)” value ([22]; wild-type RT) was 14.5 and the Kd [23] was 0.7 µM. For the same compound, the “kpol” value [23] was 0.03 s⁻¹, the kpol/Kd [23] was 0.04 and the “reduction in the incorporation velocity of the nucleotide (factor)” value [24] was 18.
In the case of `C[C@H](Cn1cnc2c(N)ncnc21)OCP(O)(=S)OP(=O)(O)OP(=O)(O)O` (stereo partly drawn) [Compound 13, (R)-9-[2-(pyrophosphoroxythiophosphonomethoxy)propyl]adenine], the “incorporation velocity, times lower than that of natural nucleotide dATP” value [22] is reported as 90 times, the “kpol” value [22] is reported as 0.58 s⁻¹ and the kpol/Kd [22] is reported as 0.11. For the same compound, the Kd ([22]; Kd (μM), wild-type RT) was 5.2 µM, the Kd [22, 25] was 5.5 µM and the “Selectivity = (kpol/Kd) natural nucleotide/(kpol/Kd) nucleotide analogue (discrimination)” value ([22]; wild-type RT) was 59.8. For the same compound, the Kd [23] was 2.7 µM, the “kpol” value [23] was 0.077 s⁻¹ and the kpol/Kd [23] was 0.03.
For `Nc1ncnc2c1ncn2CCOCP(=O)(O)O` [PMEA, 9-(2-(phosphonomethoxy)ethyl)adenine], the CC50 at 3 days [10] was over 200 µM, the “SI selectivity index (TC50/EC50)” value ([11]; HBV, HepAD38 cells) was over 23 and the EC50 [11] was 8.8 µM. For the same compound, the EC50 ([12]; Huh-7, infected Huh7 cells, 50% reduction of viral DNA, read-out: EC50 (μM) HBV) was 6 µM, the CC50 at 7 days [15] was over 19 µM and the “IT (selectivity index, TC50/EC50)” value ([19]; HIV-1 (LAI), CMSP) was over 5. For the same compound, the EC50 ([19]; CMSP cultures, 7 days, RT activity in supernatants) was 1.9 µM.
